Experimental data taken from patent US20160220581A1, “CHROMIUM COMPOSITIONS FOR THE TREATMENT OR PREVENTION OF DIABETIC RETINOPATHY” (JDS Therapeutics, LLC, priority 2015, published 2016).

Columns and labels:
Type in all cases: in vivo, rat
[1] = test system: diabetic rats; test: CrHis supplementation in STZ-induced diabetic rats: body weight and blood/serum biochemical parameters
Protocol: (§1) Diabetes was induced with streptozotocin [(STZ), 55 mg/kg] by intraperitoneal injection in male Long-Evans rats. Three weeks after STZ injection, rats were divided into four groups, namely, untreated normal controls, normal rats receiving CrHis (110 μg/kg/day); untreated diabetics and diabetics treated with CrHis (110 μg/kg/day) orally for 12 weeks.
(§2) Twenty eight Long Evans rats per experiment, aged 8 weeks with 250±20 g of body weight were used in these experiments. All the animals were kept and maintained under standard guidelines. The animals were kept and maintained at 22±2° C., humidity of 55%±5% and 12/12-hour light/dark cycle. The rats were weighed every week and at the end of the study. Blood sample was collected from the tail vein of each rat for the measurement of biochemical efficacy and safety markers.
(§3) The CrHis was given in the water and administered at a concentration of 110 μg/kg bw/d) to get 9.16 μg elemental Cr (kg body/d), which is an equivalent dose of 614 μg Cr for a 70-kg adult human based on previous work. The Cr concentration of the water provided the control group was negligible (<1 μg/L). The water provided the Cr-supplemented group was initially prepared as a solution containing 3000 μg CrHis/L of water. The […] water was diluted to achieve the target Cr intake per group on the basis of measured water intake. To induce experimental diabetes, STZ was dissolved in citrate buffer (pH 4.5) and injected once intraperitoneally at a dose of 55 mg/kg to the remainder of the animals. A control group was given citrate buffer via intraperitoneal injection.
(§4) Fourteen rats were treated with STZ (55 mg/kg body weight) through intraperitoneal injection. All rats were then fasted for 16 hour prior to treatment, but they had access to drinking water. The animals were divided into 4 groups: group I (Control) rats received citrate buffer intraperitoneally and isotonic saline, orally; group II (Control+CrHis) rats were administered chromium histidinate orally (110 μg/kg body weight) daily for a period of […]; group III (Diabetic) rats received single injection of STZ (55 mg/kg body weight) intraperitoneally and were also given isotonic saline, orally for the duration of the study; group IV (Diabetic+CrHis) diabetic rats were administered chromium orally as chromium histidinate (110 μg/kg body weight) daily for a period of 12 weeks after the induction of diabetes.
(§5) Body weight and blood glucose concentrations were monitored weekly. Blood was collected from the tail vein of the rats. Blood glucose was determined by one touch glucometer (ACCU-Check Active, Roche Diagnostics, Mannheim, Germany) after the injection for 72 h. Before STZ injection, glucose concentrations of study rats and controls were measured and compared.
(§6) Blood samples were centrifuged at 3000×g for 10 min and sera were separated. Serum glucose concentrations were measured by using ACCU-Chek Active (Roche Diagnostics, Basel, Switzerland). Serum insulin levels were measured with the Rat Insulin Kit (Linco Research, St Charles, Mo.) by enzyme-linked immunosorbent assay (ELISA, Elx-800, BioTek Instruments, Winooski, Vt.). Serum concentrations of total cholesterol (TC) were measured by diagnostic kits (Sigma Diagnostics, St Louis, Mo.). Blood glycosylated haemoglobin (HbAlc) was also measured by routine kit (Alfabiotech, Milano, Italy) using the autoanalyzer.
Data were analyzed statistically using one-way ANOVA. In the analyses for the biomarker(s), the repeated statement was added in the general linear model. The group differences were attained by the Fisher's multiple comparison test [Statistical Package for the Social Sciences (SPSS)]. A P value of less than 0.05 was considered significant.

[2] = test system: normal rats; test: CrHis supplementation in normal rats: body weight and blood/serum biochemical parameters; conditions: CrHis group, CrHis 110 μg/kg/day orally
Protocol: as §1, §2, §3, §4, §5, §6
Data were analyzed statistically using one-way ANOVA. […]

[3] = test system: glucose transporter 1 (GLUT 1); test: Western blot of retina GLUT 1 expression in diabetic rats; conditions: diabetic rats treated with CrHis, P<0.05, FIG. 1 Panel A
Protocol: as §1
(§7) After rats were sacrificed, both eyes were either (1) enucleated and frozen at −80° C. for the measurements of the target biomarker(s) and/or other analysis or (2) are examined immediately post-sacrifice for morphological changes. […]
(§8) Equal amounts of protein (50 μg) were electrophoresed and subsequently transferred onto a nitrocellulosemembrane (Schleicher and Schuell Inc., Keene, N.H., USA). […] Bands were analyzed densitometrically using an image analysis system (Image J; National Institute of Health, Bethesda, USA).
(§9) General procedures were conducted as described above. […] The retina MDA content was measured by high performance liquid chromatography (HPLC, Shimadzu, Tokyo, Japan) using a Shimadzu UV-vis SPD-10 AVP detector and a CTO-10 AS VP column in a mobile phase consisting of 30 mM KH2PO4 and methanol (82.5+17.5, v/v; pH 3.6) at a flow rate of 1.2 ml/min. Column effluents were monitored at 250 nm and the volume was 20 μl. […]
(§10) Data are means of quadruplets of assays and expressed as relative to control (%). […]

[4] = test system: glucose transporter 3 (GLUT3); test: Western blot of retina GLUT3 expression in diabetic rats; conditions: diabetic rats treated with CrHis, P<0.05, FIG. 1 Panel B
Protocol: as §1, §7, §8, §9, §10

[5] = test system: retina insulin; test: Western blot of retina insulin expression in diabetic rats; conditions: diabetic rats treated with CrHis, P<0.05, FIG. 1 Panel C
Protocol: as §1, §7, §8, §9, §10

[6] = test system: retina malondialdehyde (MDA); test: Retina MDA content by HPLC in diabetic rats; conditions: diabetic rats treated with CrHis, FIG. 1 Panel D
Protocol: as §1
General procedures were conducted as described above. After rats were sacrificed, both eyes were enucleated and frozen at −80° C. for the measurements of MDA, GLUT 1, GLUT3 and insulin. The retina MDA content was measured by high performance liquid chromatography (HPLC, Shimadzu, Tokyo, Japan) using a Shimadzu UV-vis SPD-10 AVP detector and a CTO-10 AS VP column in a mobile phase consisting of 30 mM KH2PO4 and methanol (82.5+17.5, v/v; pH 3.6) at a flow rate of 1.2 ml/min. Column effluents were monitored at 250 nm and the volume was 20 μl. The retina homogenate (10%, w/v) was prepared in 10 mM phosphate buffer (pH 7.4), centrifuged at 13,000×g for 10 min at 4° C., and the supernatant was collected and stored at −80° C. for MDA analysis.

[7] = test system: retina of diabetic rats; test: Histologic examination of retina in diabetic rats
Protocol: as §1
After the eye extirpation, tissue (retina) of each rat was also examined grossly. The tissue was removed for histologic study, washed with normal saline, and immersion-fixed in 10% buffered formalin immediately upon removal. They were gradually dehydrated, embedded in paraffin, cut into 5-μm sections, and stained with hematoxylin and eosin for histologic examination according to standard procedures.
General procedures were conducted as described above. Retinas were highly organized in the normal (control) rats, with intact layers. The retinas were disorganized in the diabetic rats with impaired layers. […] Similar experiments are conducted with other chromium species such as chromium nicotinate and chromium picolinate.

[8] = test system: retinal lipid oxidation; test: Retinal lipid oxidation by LC-MS of retinal lysate (Example 3); conditions: versus other chromium complexes at equivalent total dosages of chromium
Protocol: (§11) General procedures are conducted as described above. Retinal lipids are extracted from the retinal cellular lysate and characterized by liquid chromatography-mass spectrometry.

[9] = test system: retinal photoreceptors; test: Free radical oxidation of retinal photoreceptors (Example 4); conditions: versus other chromium complexes at equivalent total dosages of chromium
Protocol: as §11

[10] = test system: hemoglobin glycation and/or retinal protein glycation; test: Hemoglobin glycation and retinal protein glycation (Example 5); conditions: versus other chromium complexes at equivalent total dosages of chromium
Protocol: General procedures are conducted as described above. […]. Retinal proteins are extracted from the retinal cellular lysate and characterized by liquid chromatography-mass spectrometry and/or Western Blotting.

[11] = test system: retinal lipoprotein membrane content; test: Loss of retinal lipoprotein membrane content (Example 6); conditions: versus other chromium complexes at equivalent total dosages of chromium
Protocol: as §11

[12] = test system: retinal capillary basement membrane; test: Retinal capillary basement membrane thickening (Example 7); conditions: versus other chromium complexes at equivalent total dosages of chromium
Protocol: General procedures are conducted as described above. Retinal capillary basement membrane thickening is characterized by physical examination of the eye using standard techniques.

[13] = test system: retinal microangiopathy; test: Retinal microangiopathy (Example 8); conditions: versus other chromium complexes at equivalent total dosages of chromium
Protocol: General procedures are conducted as described above. Retinal microangiopathy is characterized using standard ophthalomogic techniques.

[14] = test system: retinal hard exudates; test: Retinal hard exudates (Example 9); conditions: versus other chromium complexes at equivalent total dosages of chromium
Protocol: General procedures are conducted as described above. Retinal hard exudates are extracted from the retinal cellular lysate and characterized by liquid chromatography-mass spectrometry.

[15] = test system: diabetic retinopathy; test: Co-administration of chromium histidinate with insulin or metformin in diabetic retinopathy (Example 10)
Protocol: General procedures are conducted as described above. Co-administration of chromium histidinate with insulin or metformin is performed. Retinal biomarker(s) are extracted from the retinal cellular lysate and characterized by liquid chromatography-mass spectrometry.

[16] = STZ + CrHis group, diabetic rats, CrHis 110 μg/kg/day orally for 12 weeks
[17] = diabetic retinopathy rats treated with CrHis

chromium histidinate [CrHis]
Body weight, change in words ([1]; CrHis-treated diabetic rats compared to the untreated diabetic group, P<0.001): significantly increased
Body weight [1, 16]: 250 g
Glucose [1, 16]: 290 mg/dL
Glycosylated hemoglobin [1, 16]: 0.45 mg/g
Insulin [1, 16]: 25.0 μU/mL
Total cholesterol [1, 16]: 218 mg/dL
Blood glucose level, change in words [1, 17]: significant increases
HbAlc level, change in words [1, 17]: significant increases
Insulin level, change in words [1, 17]: significant increases
Body weight [2]: 340 g
Glucose [2]: 100 mg/dL
Glycosylated hemoglobin [2]: 0.20 mg/g
Insulin [2]: 50.3 μU/mL
Total cholesterol [2]: 80 mg/dL
Expression of GLUT1 in the retina [3]: reversed these changes to near control levels
Expression of GLUT3 in the retina [4]: reversed these changes to near control levels
Expression of insulin in the retina [5]: reversed these changes to near control levels
MDA expression in retina [6]: statistically significant reduction
Retina organization (histology) ([7]; CrHis group compared to the diabetes group): surprisingly improved
Reducing the physiological effects of diabetic retinopathy ([7]; versus other chromium complexes at equivalent total dosages of chromium): more efficacious
Reducing the retinal lipid oxidation [8]: more efficacious
Reducing the free radical oxidation of retinal photoreceptors [9]: more efficacious
Reducing hemoglobin glycation and/or retinal protein glycation [10]: more efficacious
Decreasing the loss of retinal lipoprotein membrane content [11]: more efficacious
Preventing retinal capillary basement membrane from thickening [12]: more efficacious
Decreasing microangiopathy [13]: more efficacious
Reducing hard exudates [14]: more efficacious
Effect in treating diabetic retinopathy [15]: synergistic effect
